Test [1] has as its system MOLM-13 cells. Briefly: Cellular proliferation assay (MTS), MOLM-13. The class given is cell-based. The conditions noted are these: Homo sapiens, AML-FLT3-ITD (heterozygous), 72 h, mean±s.d. of three experiments. Here is the method: (§1) MOLM-13 cells were purchased from the Deutsche Sammlung von Microorganismen und Zellkulturen GmbH (Braunschweig, Germany). RS4;11, MV4-11, U937, and K562 cell lines were obtained from the American Type Culture Collection (ATCC, Manassas, VA, USA). […] HEK293T- and FLT3-transfected HEK293T cells were cultured in DMEM (Invitrogen) medium with 10% FBS.
(§2) Proliferation assays were performed by seeding 10 000 cells per well in a 96-well culture plate. […] Cell viability was quantitated using the MTS method (Promega) according to the manufacturer's recommended protocol. The results were determined by measuring absorbance at 490 nm using a plate reader (Victor2; Perkin-Elmer).

Test [2] deals with MV4-11 cells. Nature of the test: Cellular proliferation assay (MTS), MV4-11. Type of test: cell-based. The conditions noted are these: Homo sapiens, AML-FLT3-ITD (homozygous), 72 h, mean±s.d. of three experiments. Here is the method:
as §1, §2

Test [3] relates to U937 cells. Nature of the test: Cellular proliferation assay (MTS), U937. The conditions noted are these: Homo sapiens, U-937, AML-FLT3-negative, 72 h, mean±s.d. of three experiments. Type of test: cell-based. The protocol:
as §1, §2

For test [4], the system named is RS4;11 cells. Nature of the test: Cellular proliferation assay (MTS), RS4;11. The note with it: Homo sapiens, RS4-11, 72 h, read-out: Proliferation GI50, RS4;11. The class given is cell-based. The protocol:
as §1, §2

The subject of test [5] is K562 cells. Briefly: Cellular proliferation assay (MTS), K562. The class given is cell-based. The note with it: Homo sapiens, CML-Bcr-Abl FLT3-negative, 72 h, mean±s.d. of three experiments. The protocol: as §1, §2
The test system of test [6] is FLT3-WT. Also on record: method as in Shankar et al (2007). The conditions noted are these: previously reported; ref Shankar et al (2007); read-out: IC50 for inhibition of FLT3-WT; cited from earlier work.
Test [7] concerns MOLM-13 xenograft tumours. Also on record: method as in Shankar et al, 2007. The note with it: ref Shankar et al, 2007; cited from earlier work.

Entries after “also recorded” stand apart in the source; their conditions may differ.

The IC50 is the concentration needed to halve the response being measured. With `Cc1ccc(F)c(NC(=O)Nc2ccc(-c3cccc4[nH]nc(N)c34)cc2)c1` [ABT-869], the GI50 in test [1] was 38 ± 14 nM; in test [2] it was 82 ± 17 nM; in test [3], above 18000 nM; in test [4], 9200 ± 2700 nM; in test [5], above 20000 nM. Moreover, in test [6], the IC50 was 4 nM. Moreover, the “Effect on MOLM-13 xenograft tumours” value in test [7] is on record as “unable to shrink the MOLM-13 xenograft tumours; also recorded: not able to produce regressions of tumours”.

The values are drawn from paper PMC3273346, “BPR1J-097, a novel FLT3 kinase inhibitor, exerts potent inhibitory activity against AML” (British Journal of Cancer, 2011).
